Experimental data reported in patent publication US20240325398A1, “COMBINATION THERAPIES” (Infinity Pharmaceuticals, Inc., priority 2014, published 2024).

Experiments:
[1] = tested on: WSU-NHL; experiment: Combination study, ATPLite 72 h, dose matrix (Synergy Score, CI50)
[2] = tested on: DOHH2; experiment: Compound 1 with dexamethasone, CellTiter-Glo viability 72 h, combination index; type: cell-based; details: DOHH2
Protocol: The effects of Compound 1 with dexamethasone were examined in a panel of cell lines. Cells were cultured and assayed as follows. Compound 1 was serially diluted with cell culture medium and various DMSO concentrations. The top concentration of Compound 1 exposed to cells was 3 uM for cell lines other than WSU-NHL and DOHH2. For WSU-NHL and DOHH2 cell lines, the top concentration of Compound 1 exposed to the cells was 0.3 uM. Dexamethasone was serially diluted in culture media and phosphate buffered saline (PBS). The top concentration of dexamethasone used on cells was 3 uM. Cells were at least 73% viable and were counted and diluted for plating at a density of about 92,000 cell/mL, 130 uL cells per well in 96 well plates for SUDHL6, Karpas 422, SUDHL4, WSU-NHL, RL, and DOHH2 cell lines. The SUDHL10 cell line was plated at a density of about 46,000 cells/mL, 130 uL cells per well in 96 well plates.
Various concentrations of Compound 1 and various combinations of dexamethasone were added to various wells of cells. Single agents (Compound 1 or dexamethasone alone) were also added to some wells of cells. Cells were incubated with compounds for 72 hours. To assay for effects of the compounds on cell viability, a CellTiter-Glo® luminescent cell viability assay (commercially available) was used. To each plate of cells, 100 uL CellTiter-Glo reagent was added, incubated, and luminescence quantified using a […].
The results for cell line DOHH2 are depicted in FIG. 11 and Table 11. […] Table 11 depicts combination index (CI) values for different combinations of dexamethasone/Compound 1 concentrations.

C[C@H](Nc1ncnc2[nH]cnc12)c1cc2cccc(Cl)c2c(=O)n1-c1ccccc1 [Compound 1, (S)-3-(1-((9H-purin-6-yl)amino)ethyl)-8-chloro-2-phenylisoquinolin-1(2H)-one]
CI50 growth inhibition ([1]; combination with Dexamethasone): S (S=0.01 to <0.5)
CI50 inhibition ([1]; combination with Dexamethasone): S (S=0.01 to <0.5)
Synergy Score growth inhibition ([1]; combination with Dexamethasone): A3 (A3=>3)
Synergy Score inhibition ([1]; combination with Dexamethasone): A3 (A3=>3)
CI50 growth inhibition ([1]; combination with LEE011): S (S=0.01 to <0.5)
CI50 inhibition ([1]; combination with LEE011): S (S=0.01 to <0.5)
Synergy Score growth inhibition ([1]; combination with LEE011): A2 (A2=1 to <3)
Synergy Score inhibition ([1]; combination with LEE011): A2 (A2=1 to <3)
CI50 growth inhibition ([1]; combination with PCI-32765): S (S=0.01 to <0.5)
CI50 inhibition ([1]; combination with PCI-32765): S (S=0.01 to <0.5)
Synergy Score growth inhibition ([1]; combination with PCI-32765): A3 (A3=>3)
Synergy Score inhibition ([1]; combination with PCI-32765): A3 (A3=>3)
CI50 growth inhibition ([1]; combination with PD-0332991): S (S=0.01 to <0.5)
CI50 inhibition ([1]; combination with PD-0332991): S (S=0.01 to <0.5)
combination index (CI) ([2]; Compound 1 0.137174 nM + Dexamethasone 1.371742 nM): E (E = >1)
combination index (CI) ([2]; Compound 1 0.137174 nM + Dexamethasone 4.115226 nM): E (E = >1)
combination index (CI) ([2]; Compound 1 0.137174 nM + Dexamethasone 12.34568 nM): E (E = >1)
combination index (CI) ([2]; Compound 1 0.137174 nM + Dexamethasone 37.03704 nM): E (E = >1)
combination index (CI) ([2]; Compound 1 0.137174 nM + Dexamethasone 111.1111 nM): C (C = 0.5 to <0.7)
combination index (CI) ([2]; Compound 1 0.137174 nM + Dexamethasone 333.3333 nM): A (A = 0.0001 to <0.3)
combination index (CI) ([2]; Compound 1 0.137174 nM + Dexamethasone 1000 nM): A (A = 0.0001 to <0.3)
combination index (CI) ([2]; Compound 1 0.137174 nM + Dexamethasone 3000 nM): A (A = 0.0001 to <0.3)
combination index (CI) ([2]; Compound 1 0.411523 nM + Dexamethasone 1.371742 nM): E (E = >1)
combination index (CI) ([2]; Compound 1 0.411523 nM + Dexamethasone 4.115226 nM): E (E = >1)
combination index (CI) ([2]; Compound 1 0.411523 nM + Dexamethasone 12.34568 nM): E (E = >1)
combination index (CI) ([2]; Compound 1 0.411523 nM + Dexamethasone 37.03704 nM): E (E = >1)
combination index (CI) ([2]; Compound 1 0.411523 nM + Dexamethasone 111.1111 nM): C (C = 0.5 to <0.7)
combination index (CI) ([2]; Compound 1 0.411523 nM + Dexamethasone 333.3333 nM): B (B = 0.3 to <0.5)
combination index (CI) ([2]; Compound 1 0.411523 nM + Dexamethasone 1000 nM): A (A = 0.0001 to <0.3)
combination index (CI) ([2]; Compound 1 0.411523 nM + Dexamethasone 3000 nM): A (A = 0.0001 to <0.3)
combination index (CI) ([2]; Compound 1 1.234568 nM + Dexamethasone 1.371742 nM): E (E = >1)
combination index (CI) ([2]; Compound 1 1.234568 nM + Dexamethasone 4.115226 nM): E (E = >1)
combination index (CI) ([2]; Compound 1 1.234568 nM + Dexamethasone 12.34568 nM): E (E = >1)
combination index (CI) ([2]; Compound 1 1.234568 nM + Dexamethasone 37.03704 nM): E (E = >1)
combination index (CI) ([2]; Compound 1 1.234568 nM + Dexamethasone 111.1111 nM): B (B = 0.3 to <0.5)
combination index (CI) ([2]; Compound 1 1.234568 nM + Dexamethasone 333.3333 nM): A (A = 0.0001 to <0.3)
combination index (CI) ([2]; Compound 1 1.234568 nM + Dexamethasone 1000 nM): A (A = 0.0001 to <0.3)
combination index (CI) ([2]; Compound 1 1.234568 nM + Dexamethasone 3000 nM): A (A = 0.0001 to <0.3)
combination index (CI) ([2]; Compound 1 3.703704 nM + Dexamethasone 1.371742 nM): B (B = 0.3 to <0.5)
combination index (CI) ([2]; Compound 1 3.703704 nM + Dexamethasone 4.115226 nM): E (E = >1)
combination index (CI) ([2]; Compound 1 3.703704 nM + Dexamethasone 12.34568 nM): E (E = >1)
combination index (CI) ([2]; Compound 1 3.703704 nM + Dexamethasone 37.03704 nM): D (D = 0.7 to <1)
combination index (CI) ([2]; Compound 1 3.703704 nM + Dexamethasone 111.1111 nM): A (A = 0.0001 to <0.3)
combination index (CI) ([2]; Compound 1 3.703704 nM + Dexamethasone 333.3333 nM): A (A = 0.0001 to <0.3)
combination index (CI) ([2]; Compound 1 3.703704 nM + Dexamethasone 1000 nM): A (A = 0.0001 to <0.3)
combination index (CI) ([2]; Compound 1 3.703704 nM + Dexamethasone 3000 nM): A (A = 0.0001 to <0.3)
combination index (CI) ([2]; Compound 1 11.11111 nM + Dexamethasone 1.371742 nM): B (B = 0.3 to <0.5)
combination index (CI) ([2]; Compound 1 11.11111 nM + Dexamethasone 4.115226 nM): E (E = >1)
